Results: patent publication US8263755B2, “Synthesis of compounds useful as modulators of amyloid-beta production” (Satori Pharmaceuticals, Inc., priority 2006, dated 2012)

What was measured:
[1] = system: 7W cells (APPwt) and 7PA2 cells (APPV717F); assay: method of Wang et al. in 7W cells (APPwt) and 7PA2 cells (APPV717F); assay type: cell-based
Method: (§1) Compounds of the present invention were assayed to determine their effect on the total ration of amyloid-β (1-42) peptide in vitro using an assay protocol substantially similar to that described by Wang et al., J. Biol. Chem. 1996, 50:31894-31902, The Profile of Soluble Amyloid β Protein in Cultured Cell Media, the entirety of which is hereby incorporated herein by reference. This assay quantifies amyloid-β protein using immunoprecipitation and mass spectrometry (IP-MS).
Compound 6 was also assayed according to the method described in Wang et al., in 7W cells (APPwt) and 7PA2 cells (APPV717F). The APP717 mutations increase the relative amount of amyloid-β (1-42) peptide. In this assay, it was shown that compound 6 reduces amyloid-β (1-42) peptide while increasing amyloid-β (1-39) peptide.

[2] = stability experiments in solution; assay type: physicochemical
Method: However, it was stable in slightly acidic solution. Therefore, 2609-165-7 was re-processed on the Luna C8 column using 70% MeOH/30% water containing 0.05% AcOH as eluent to give 3.4 mg of compound 6 (2609-172-11).

[3] = system: amyloid-β (1-42) peptide; assay: amyloid-β protein profile by immunoprecipitation and mass spectrometry (IP-MS), protocol of Wang et al.; assay type: cell-based; conditions: in vitro
Method: as §1

CC(=O)O[C@@H]([C@H]1C[C@@H](C)C2=C(O1)[C@H](O)[C@@]1(C)[C@@H]3CC[C@H]4C(C)(C)[C@@H](O[C@@H]5OC[C@@H](O)[C@H](O)[C@H]5O)CC[C@@]45C[C@@]35CC[C@]21C)C(C)(C)O [Compound 6, 24-O-Acetylhydroshengmanol 3-β-D-xylopyranoside (delta-16,17)-enol ether]
effect on amyloid-β (1-39) peptide [1]: increasing
effect on amyloid-β (1-42) peptide [1]: reduces
stability in solution ([2]; MeOH solution which is slightly basic): deacetylation occurred
stability in solution ([2]; slightly acidic solution): stable
effect on amyloid-β (1-37) peptide [3]: increasing
effect on amyloid-β (1-39) peptide [3]: increasing
effect on amyloid-β (1-42) peptide [3]: reduced
